Measured values from ChEMBL document CHEMBL3526001, “Attenuation of intestinal absorption by major efflux transporters: quantitative tools and strategies using a Caco-2 model” (Drug Metab Dispos, 2011).

Columns and labels:
clinical = settings: human, in vivo
Description: Fraction absorbed in human

in vitro [1] = settings: human, Caco-2
in vitro [2] = settings: human, Caco-2; remark: listed apart in the source
P-gp = test: in vitro; settings: human
in vitro [3] = settings: human, Caco-2; remark: listed apart in the source
[4] = human, caco-2, 2 h, 10 µM
[5] = human, caco-2, 2 h, 10 µM; remark: listed apart in the source

| Structure (SMILES) | Fa (clinical) [%] | Papp B→A at 2 h, 10 µM (in vitro [1]) [×10⁻⁶ cm/s] | Papp A→B at 2 h, 10 µM (in vitro [2]) [×10⁻⁶ cm/s] | efflux ratio at 2 h, 10 µM (P-gp; Caco-2, with LY335979 1 uM) | efflux ratio at 2 h, 10 µM (in vitro [3]) | efflux ratio at 2 h, 10 µM (P-gp; Caco-2) | Papp [4] [×10⁻⁶ cm/s] | Papp [5] [×10⁻⁶ cm/s] |
| --- | --- | --- | --- | --- | --- | --- | --- | --- |
| CC(=O)N1CCN(c2ccc(OCC3COC(Cn4ccnc4)(c4ccc(Cl)cc4Cl)O3)cc2)CC1 (stereo unspecified) [KETOCONAZOLE] | 90 | 5.1 | 18 |  |  |  |  |  |
| CN(C)C(=O)C(CCN1CCC(O)(c2ccc(Cl)cc2)CC1)(c1ccccc1)c1ccccc1 [LOPERAMIDE] |  | 7.6 | 5.8 |  |  |  |  |  |
| C[C@H]1C[C@@H]2[C@H]([C@@H](O)C[C@@]3(C)[C@H]2CC[C@]3(O)C(=O)CO)[C@@]2(C)C=CC(=O)C=C12 [METHYLPREDNISOLONE] |  | 24.6 | 8.5 | 0.8 | 2.9 |  |  |  |
| O=C1c2c(O)ccc(O)c2C(=O)c2c(NCCNCCO)ccc(NCCNCCO)c21 [MITOXANTRONE] | 85 | 12.5 | 26.3 |  | 0.5 | 0.6 |  |  |
| COC(=O)C1=C(C)NC(C)=C(C(=O)OCCN(C)Cc2ccccc2)C1c1cccc([N+](=O)[O-])c1 (stereo unspecified) [NICARDIPINE] | 100 | 2.6 | 5 |  | 0.5 | 0.5 |  |  |
| O=C1CN(/N=C/c2ccc([N+](=O)[O-])o2)C(=O)N1 [NITROFURANTOIN] | 100 | 11.1 | 1.1 |  | 10.4 |  |  |  |
| CCn1cc(C(=O)O)c(=O)c2cc(F)c(N3CCNCC3)cc21 [NORFLOXACIN] | 40 | 3.3 | 1.9 |  | 1.7 | 1.7 |  |  |
| O=C(O)c1cc(/N=N/c2ccc(O)c(C(=O)O)c2)ccc1O [OLSALAZINE] |  | 3.1 | 0.9 | 1.9 | 3.7 |  |  |  |
| CC(=O)O[C@H]1C(=O)[C@@]2(C)[C@H]([C@H](OC(=O)c3ccccc3)[C@]3(O)C[C@H](OC(=O)[C@H](O)[C@@H](NC(=O)c4ccccc4)c4ccccc4)C(C)=C1C3(C)C)[C@]1(OC(C)=O)CO[C@@H]1C[C@@H]2O [PACLITAXEL] | 6 |  |  |  |  |  |  |  |
| COc1cc2nc(N3CCN(C(=O)c4ccco4)CC3)nc(N)c2cc1OC [PRAZOSIN] | 100 | 11.1 | 6.2 |  | 1.8 |  |  |  |
| COC(=O)[C@H]1[C@H]2C[C@@H]3c4[nH]c5cc(OC)ccc5c4CCN3C[C@H]2C[C@@H](OC(=O)c2cc(OC)c(OC)c(OC)c2)[C@@H]1OC [RESERPINE] | 50 | 2.3 | 3.6 |  | 0.6 | 0.7 |  |  |
| CC(C)c1nc(CN(C)C(=O)N[C@H](C(=O)N[C@@H](Cc2ccccc2)C[C@H](O)[C@H](Cc2ccccc2)NC(=O)OCc2cncs2)C(C)C)cs1 [RITONAVIR] | 66 | 9.2 | 2.1 |  |  |  |  |  |

The next lines start with the values.

| Fa (clinical) [%] | Papp B→A at 2 h, 10 µM (in vitro [1]) [×10⁻⁶ cm/s] | Papp A→B at 2 h, 10 µM (in vitro [2]) [×10⁻⁶ cm/s] | efflux ratio at 2 h, 10 µM (P-gp; Caco-2, with LY335979 1 uM) | efflux ratio at 2 h, 10 µM (in vitro [3]) | efflux ratio at 2 h, 10 µM (P-gp; Caco-2) | Papp [4] [×10⁻⁶ cm/s] | Papp [5] [×10⁻⁶ cm/s] | Structure (SMILES) |
| --- | --- | --- | --- | --- | --- | --- | --- | --- |
| 20 | 7.5 | 0.5 |  | 15.9 |  |  |  | CC(C)c1nc(N(C)S(C)(=O)=O)nc(-c2ccc(F)cc2)c1/C=C/[C@@H](O)C[C@@H](O)CC(=O)O [ROSUVASTATIN] |
| 25 | 3.6 | 1 | 0.7 | 3.5 |  |  |  | C=CC[C@@H]1/C=C(\C)C[C@H](C)C[C@H](OC)[C@H]2O[C@@](O)(C(=O)C(=O)N3CCCC[C@H]3C(=O)O[C@H](/C(C)=C/[C@@H]3CC[C@@H](O)[C@H](OC)C3)[C@H](C)[C@@H](O)CC1=O)[C@H](C)C[C@@H]2OC [TACROLIMUS ANHYDROUS] |
| 0 | 8.8 | 0.9 | 2.1 | 9.8 |  |  |  | COc1cc([C@@H]2c3cc4c(cc3[C@@H](O[C@@H]3O[C@@H]5CO[C@@H](c6cccs6)O[C@H]5[C@H](O)[C@H]3O)[C@H]3COC(=O)[C@H]23)OCO4)cc(OC)c1O [TENIPOSIDE] |
| 16 | 1 | 0.5 |  | 1.9 | 0.9 |  |  | CN1CCN(CCCN2c3ccccc3Sc3ccc(C(F)(F)F)cc32)CC1 [TRIFLUOPERAZINE] |
|  | 11.2 | 15.9 |  | 0.7 | 0.4 |  |  | COc1cc(Cc2cnc(N)nc2N)cc(OC)c1OC [TRIMETHOPRIM] |
| < 10 |  |  | 8.6 |  |  | 3.5 | 0.4 | CC[C@]1(O)C[C@H]2CN(CCc3c([nH]c4ccccc34)[C@@](C(=O)OC)(c3cc4c(cc3OC)N(C=O)[C@H]3[C@@](O)(C(=O)OC)[C@H](OC(C)=O)[C@]5(CC)C=CCN6CC[C@]43[C@@H]65)C2)C1 [VINCRISTINE] |
| 45 | 8.5 | 1.4 | 1 | 5.9 |  |  |  | CCC1=C[C@@H]2CN(C1)Cc1c([nH]c3ccccc13)[C@@](C(=O)OC)(c1cc3c(cc1OC)N(C)[C@H]1[C@@](O)(C(=O)OC)[C@H](OC(C)=O)[C@]4(CC)C=CCN5CC[C@]31[C@@H]54)C2 [VINORELBINE] |
| 90 | 9.6 | 6.7 |  | 1.4 |  |  |  | Cc1cn([C@H]2C[C@H](N=[N+]=[N-])[C@@H](CO)O2)c(=O)[nH]c1=O [ZIDOVUDINE] |
